Earlier results in patent US20050218054A1, “Apparatus for Producing sterilized water” (priority 2002, published 2005).

Conditions: same chlorine concentration

## OCl [hypochlorous acid ion]
  Sterilization power relative to hypochlorous acid (HOCL): about 1/80
